Experiments:
Nek7^SRS = target: T1, Nek7^SRS (Homo sapiens, UniProt Q8TDX7, L180F/L86H/Y97F); assay: X-ray co-crystal structure, […] Å; IC50 from LabChip EZ Reader kinase assay; assay type: biochemical
T1 construct: Nek7 strong R-spine mutant, C-terminal non-cleavable His6-tag

Nek7^WT = target: T2, Nek7^WT (Homo sapiens, UniProt Q8TDX7); assay: as above; assay type: biochemical
T2 construct: wild-type Nek7, C-terminal non-cleavable His6-tag
T2 sequence (Q8TDX7 whole entry): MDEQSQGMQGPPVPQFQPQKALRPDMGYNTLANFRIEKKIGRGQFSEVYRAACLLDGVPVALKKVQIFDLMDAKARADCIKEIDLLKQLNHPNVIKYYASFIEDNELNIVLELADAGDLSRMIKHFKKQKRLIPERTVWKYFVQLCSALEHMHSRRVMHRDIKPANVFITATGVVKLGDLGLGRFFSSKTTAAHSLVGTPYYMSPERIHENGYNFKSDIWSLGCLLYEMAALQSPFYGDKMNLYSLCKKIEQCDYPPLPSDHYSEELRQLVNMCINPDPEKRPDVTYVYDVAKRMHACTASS

T1 sequence (Q8TDX7 whole entry L86H/Y97F/L180F): as the sequence (Q8TDX7 whole entry) above, with L86H, Y97F, L180F counted along it

CN(C)CCCNS(=O)(=O)c1cccc(Nc2nc(OCC3CCCCC3)c3nc[nH]c3n2)c1 [compound 51]
IC50 (Nek7^SRS): 40.1 µM | IC50 (Nek7^WT): 79 µM
